Experiments:
Type in all cases: in vivo
Spodoptera littoralis = test: Example B9: Spodoptera littoralis (Egyptian cotton leaf worm), cotton leaf discs, L1 larvae; settings: foliar, 72 h, application rate of 200 ppm, 3 days after infestation, read-out: control in at least one of the three categories (mortality, anti-feedant effect, or growth inhibition)
Protocol: Example B9: Spodoptera littoralis (Egyptian Cotton Leaf Worm)
Cotton leaf discs were placed onto agar in 24-well microtiter plates and sprayed with aqueous test solutions prepared from 10,000 ppm DMSO stock solutions. After drying the leaf discs were infested with five L1 larvae. The samples were assessed for mortality, anti-feeding effect, and growth inhibition in comparison to untreated samples 3 days after infestation. Control of Spodoptera littoralis by a test sample is given when at least one of the categories mortality, anti-feedant effect, and growth inhibition is higher than the untreated sample.

Plutella xylostella = test: Example B8: Plutella xylostella (diamond back moth), artificial diet 24-well, eggs; settings: 192 h, application rate of 200 ppm, 8 days after infestation, read-out: effect in at least one of the two categories (mortality or growth inhibition)
In short: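 Plutella eggs placed onto dried, compound-treated artificial diet, the aqueous test solutions diluted from 10,000 ppm DMSO stocks. Eight days post-infestation, larvae rated for mortality and growth inhibition relative to untreated controls.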

Chilo suppressalis = test: Example B1: Chilo suppressalis (striped rice stemborer), artificial diet, L2 larvae; settings: 144 h, application rate of 200 ppm, 6 days after infestation, read-out: control in at least one of the three categories (mortality, anti-feedant effect, or growth inhibition)
In short: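 L2 larvae (6-8 per well) were placed on dried artificial diet that had been dosed with aqueous dilutions of 10,000 ppm DMSO stock solutions. After 6 days, control was credited if mortality, antifeedant effect or growth inhibition was higher than in untreated samples.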

C[C@H](NC(=O)Nc1cc(Br)c(Cl)cc1F)c1ncnn1-c1ncccn1 [Example P300, 1-(5-bromo-4-chloro-2-fluoro-phenyl)-3-[(1S)-1-(2-pyrimidin-2-yl-1,2,4-triazol-3-yl)ethyl]urea]
≥ 80%: percent control (mortality, anti-feedant effect or growth inhibition) at 200 ppm (Spodoptera littoralis) | percent effect (mortality or growth inhibition) at 200 ppm (Plutella xylostella) | percent control (mortality, anti-feedant effect or growth inhibition) at 200 ppm (Chilo suppressalis)

Cc1cc(Br)c(F)cc1NC(=O)N[C@@H](C)c1ncnn1-c1ncccn1 [Example P367, 1-(4-bromo-5-fluoro-2-methyl-phenyl)-3-[(1S)-1-(2-pyrimidin-2-yl-1,2,4-triazol-3-yl)ethyl]urea]
≥ 80%: percent control (mortality, anti-feedant effect or growth inhibition) at 200 ppm (Spodoptera littoralis) | percent effect (mortality or growth inhibition) at 200 ppm (Plutella xylostella) | percent control (mortality, anti-feedant effect or growth inhibition) at 200 ppm (Chilo suppressalis)

CC(NC(=O)Nc1ccc(C(F)(F)F)cc1I)c1nccnc1-n1nccn1 (stereo not drawn) [Example P263, 1-[2-iodo-4-(trifluoromethyl)phenyl]-3-[1-[3-(triazol-2-yl)pyrazin-2-yl]ethyl]urea]
≥ 80%: percent control (mortality, anti-feedant effect or growth inhibition) at 200 ppm (Spodoptera littoralis) | percent effect (mortality or growth inhibition) at 200 ppm (Plutella xylostella) | percent control (mortality, anti-feedant effect or growth inhibition) at 200 ppm (Chilo suppressalis)

C[C@H](NC(=O)Nc1cc(C(F)(F)F)c(Cl)cc1Cl)c1ncnn1-c1ccc(C#N)cn1 [Example P173, 1-[(1S)-1-[2-(5-cyano-2-pyridyl)-1,2,4-triazol-3-yl]ethyl]-3-[2,4-dichloro-5-(trifluoromethyl)phenyl]urea]
≥ 80%: percent control (mortality, anti-feedant effect or growth inhibition) at 200 ppm (Spodoptera littoralis) | percent effect (mortality or growth inhibition) at 200 ppm (Plutella xylostella) | percent control (mortality, anti-feedant effect or growth inhibition) at 200 ppm (Chilo suppressalis)

COc1cc(NC(=O)N[C@@H](C)c2ncnn2-c2ncccn2)c(Cl)cc1Cl [Example P265, 1-(2,4-dichloro-5-methoxy-phenyl)-3-[(1S)-1-(2-pyrimidin-2-yl-1,2,4-triazol-3-yl)ethyl]urea]
≥ 80%: percent control (mortality, anti-feedant effect or growth inhibition) at 200 ppm (Spodoptera littoralis) | percent effect (mortality or growth inhibition) at 200 ppm (Plutella xylostella) | percent control (mortality, anti-feedant effect or growth inhibition) at 200 ppm (Chilo suppressalis)

C[C@H](NC(=O)Nc1cc(C(F)(F)F)c(Cl)cc1Br)c1ncnn1-c1ccc(C#N)cn1 [Example P253, 1-[2-bromo-4-chloro-5-(trifluoromethyl)phenyl]-3-[(1S)-1-[2-(5-cyano-2-pyridyl)-1,2,4-triazol-3-yl]ethyl]urea]
≥ 80%: percent control (mortality, anti-feedant effect or growth inhibition) at 200 ppm (Spodoptera littoralis) | percent effect (mortality or growth inhibition) at 200 ppm (Plutella xylostella) | percent control (mortality, anti-feedant effect or growth inhibition) at 200 ppm (Chilo suppressalis)

C[C@H](NC(=O)Nc1cc(Br)c(F)cc1Cl)c1ncnn1-c1ncccn1 [Example P388, 1-(5-bromo-2-chloro-4-fluoro-phenyl)-3-[(1S)-1-(2-pyrimidin-2-yl-1,2,4-triazol-3-yl)ethyl]urea]
≥ 80%: percent control (mortality, anti-feedant effect or growth inhibition) at 200 ppm (Spodoptera littoralis) | percent effect (mortality or growth inhibition) at 200 ppm (Plutella xylostella) | percent control (mortality, anti-feedant effect or growth inhibition) at 200 ppm (Chilo suppressalis)

CC(NC(=O)Nc1ccc(C(F)(F)F)cc1I)c1nccnc1-c1ncccn1 (stereo not drawn) [Example P243, 1-[2-iodo-4-(trifluoromethyl)phenyl]-3-[1-(3-pyrimidin-2-ylpyrazin-2-yl)ethyl]urea]
≥ 80%: percent control (mortality, anti-feedant effect or growth inhibition) at 200 ppm (Spodoptera littoralis) | percent effect (mortality or growth inhibition) at 200 ppm (Plutella xylostella) | percent control (mortality, anti-feedant effect or growth inhibition) at 200 ppm (Chilo suppressalis)

CC(NC(=O)Nc1cc(C(F)(F)F)c(Cl)cc1Br)c1nccnc1-c1ncccn1 (stereo not drawn) [Example P240, 1-[2-bromo-4-chloro-5-(trifluoromethyl)phenyl]-3-[1-(3-pyrimidin-2-ylpyrazin-2-yl)ethyl]urea]
≥ 80%: percent control (mortality, anti-feedant effect or growth inhibition) at 200 ppm (Spodoptera littoralis) | percent effect (mortality or growth inhibition) at 200 ppm (Plutella xylostella) | percent control (mortality, anti-feedant effect or growth inhibition) at 200 ppm (Chilo suppressalis)

C[C@H](NC(=O)Nc1cc(F)c(Br)cc1Cl)c1ncnn1-c1ncccn1 [Example P314, 1-(4-bromo-2-chloro-5-fluoro-phenyl)-3-[(1S)-1-(2-pyrimidin-2-yl-1,2,4-triazol-3-yl)ethyl]urea]
≥ 80%: percent control (mortality, anti-feedant effect or growth inhibition) at 200 ppm (Spodoptera littoralis) | percent effect (mortality or growth inhibition) at 200 ppm (Plutella xylostella) | percent control (mortality, anti-feedant effect or growth inhibition) at 200 ppm (Chilo suppressalis)

C[C@H](NC(=O)Nc1ccc(C(F)(F)F)cc1I)c1nccnc1-c1ccc(C#N)cn1 [Example P249, 1-[(1S)-1-[3-(5-cyano-2-pyridyl)pyrazin-2-yl]ethyl]-3-[2-iodo-4-(trifluoromethyl)phenyl]urea]
≥ 80%: percent control (mortality, anti-feedant effect or growth inhibition) at 200 ppm (Spodoptera littoralis) | percent effect (mortality or growth inhibition) at 200 ppm (Plutella xylostella) | percent control (mortality, anti-feedant effect or growth inhibition) at 200 ppm (Chilo suppressalis)

C[C@H](NC(=O)Nc1cnc(Br)cc1Br)c1nccnc1-c1ccc(C#N)cn1 [Example P248, 1-[(1S)-1-[3-(5-cyano-2-pyridyl)pyrazin-2-yl]ethyl]-3-(4,6-dibromo-3-pyridyl)urea]
≥ 80%: percent control (mortality, anti-feedant effect or growth inhibition) at 200 ppm (Spodoptera littoralis) | percent effect (mortality or growth inhibition) at 200 ppm (Plutella xylostella) | percent control (mortality, anti-feedant effect or growth inhibition) at 200 ppm (Chilo suppressalis)

C[C@H](NC(=O)Nc1cc(OC(F)(F)C(F)F)c(Cl)cc1Cl)c1ncnn1-c1ncc(C(=O)N(C)C)s1 [Example P396, 2-[5-[(1S)-1-[[2,4-dichloro-5-(1,1,2,2-tetrafluoroethoxy)phenyl]carbamoyl-amino]ethyl]-1,2,4-triazol-1-yl]-N,N-dimethyl-thiazole-5-carboxamide]
≥ 80%: percent control (mortality, anti-feedant effect or growth inhibition) at 200 ppm (Spodoptera littoralis) | percent effect (mortality or growth inhibition) at 200 ppm (Plutella xylostella) | percent control (mortality, anti-feedant effect or growth inhibition) at 200 ppm (Chilo suppressalis)

CNC(=O)c1cnc(-n2ncnc2[C@H](C)NC(=O)Nc2cc(C(F)(F)F)c(Cl)cc2Cl)s1 [Example P395, 2-[5-[(1S)-1-[[2,4-dichloro-5-(trifluoromethyl)phenyl]carbamoyl-amino]ethyl]-1,2,4-triazol-1-yl]-N-methyl-thiazole-5-carboxamide]
≥ 80%: percent control (mortality, anti-feedant effect or growth inhibition) at 200 ppm (Spodoptera littoralis) | percent effect (mortality or growth inhibition) at 200 ppm (Plutella xylostella) | percent control (mortality, anti-feedant effect or growth inhibition) at 200 ppm (Chilo suppressalis)

C[C@H](NC(=O)Nc1ccc(Br)cc1I)c1ncnn1-c1ncccn1 [Example P76, 1-(4-bromo-2-iodo-phenyl)-3-[(1S)-1-(2-pyrimidin-2-yl-1,2,4-triazol-3-yl)ethyl]urea]
≥ 80%: percent control (mortality, anti-feedant effect or growth inhibition) at 200 ppm (Spodoptera littoralis) | percent effect (mortality or growth inhibition) at 200 ppm (Plutella xylostella) | percent control (mortality, anti-feedant effect or growth inhibition) at 200 ppm (Chilo suppressalis)

C[C@H](NC(=O)Nc1cc(O)c(Cl)cc1Cl)c1ncnn1-c1ncccn1 [Example P237, 1-(2,4-dichloro-5-hydroxy-phenyl)-3-[(1S)-1-(2-pyrimidin-2-yl-1,2,4-triazol-3-yl)ethyl]urea]
≥ 80%: percent control (mortality, anti-feedant effect or growth inhibition) at 200 ppm (Spodoptera littoralis) | percent effect (mortality or growth inhibition) at 200 ppm (Plutella xylostella) | percent control (mortality, anti-feedant effect or growth inhibition) at 200 ppm (Chilo suppressalis)

C[C@H](NC(=O)Nc1cc(OC(F)(F)C(F)F)c(Cl)cc1Cl)c1ncnn1-c1ccc(C#N)cn1 [Example P251, 1-[(1S)-1-[2-(5-cyano-2-pyridyl)-1,2,4-triazol-3-yl]ethyl]-3-[2,4-dichloro-5-(1,1,2,2-tetrafluoroethoxy)phenyl]urea]
≥ 80%: percent control (mortality, anti-feedant effect or growth inhibition) at 200 ppm (Spodoptera littoralis) | percent effect (mortality or growth inhibition) at 200 ppm (Plutella xylostella) | percent control (mortality, anti-feedant effect or growth inhibition) at 200 ppm (Chilo suppressalis)

C[C@H](NC(=O)Nc1ccc(C(F)(F)F)cc1I)c1ncnn1-c1ccc(C#N)cn1 [Example P256, 1-[(1S)-1-[2-(5-cyano-2-pyridyl)-1,2,4-triazol-3-yl]ethyl]-3-[2-iodo-4-(trifluoromethyl)phenyl]urea]
≥ 80%: percent control (mortality, anti-feedant effect or growth inhibition) at 200 ppm (Spodoptera littoralis) | percent effect (mortality or growth inhibition) at 200 ppm (Plutella xylostella) | percent control (mortality, anti-feedant effect or growth inhibition) at 200 ppm (Chilo suppressalis)

C[C@H](NC(=O)Nc1cnc(Cl)cc1I)c1ncnn1-c1ncccn1 [Example P271, 1-(6-chloro-4-iodo-3-pyridyl)-3-[(1S)-1-(2-pyrimidin-2-yl-1,2,4-triazol-3-yl)ethyl]urea]
≥ 80%: percent control (mortality, anti-feedant effect or growth inhibition) at 200 ppm (Spodoptera littoralis) | percent effect (mortality or growth inhibition) at 200 ppm (Plutella xylostella) | percent control (mortality, anti-feedant effect or growth inhibition) at 200 ppm (Chilo suppressalis)

C[C@H](NC(=O)Nc1ccc(Cl)c(C(F)(F)F)c1)c1nccnc1-c1ccc(C#N)cn1 [Example P7, 1-[4-chloro-3-(trifluoromethyl)phenyl]-3-[(1S)-1-[3-(5-cyano-2-pyridyl)pyrazin-2-yl]ethyl]urea]
≥ 80%: percent control (mortality, anti-feedant effect or growth inhibition) at 200 ppm (Spodoptera littoralis) | percent effect (mortality or growth inhibition) at 200 ppm (Plutella xylostella) | percent control (mortality, anti-feedant effect or growth inhibition) at 200 ppm (Chilo suppressalis)
